Source: ChEMBL document CHEMBL1128720, “N-[(1-butyl-4-piperidinyl)methyl]-3,4dihydro-2H-[1,3]oxazino[3,2- a]indole10-carboxamide hydrochloride: the first potent and selective 5-HT4 receptor antagonist amide with oral activity” (J Med Chem, 1995)

Tests used:
[1] = biological target: 5-hydroxytryptamine receptor 4 (Cavia porcellus, UniProt O70528); assay: Ability to antagonize 5-HT-evoked contractions mediated through 5-hydroxytryptamine 4 receptor activation in the guinea pig distal colon LMMP; assay type: tissue-based
[2] = biological target: T1, 5-hydroxytryptamine receptor 1A (Homo sapiens, UniProt P08908); assay: Binding affinity was determined against 5-hydroxytryptamine 1A receptor; design: species or system Cavia porcellus
T1 sequence (P08908 whole entry): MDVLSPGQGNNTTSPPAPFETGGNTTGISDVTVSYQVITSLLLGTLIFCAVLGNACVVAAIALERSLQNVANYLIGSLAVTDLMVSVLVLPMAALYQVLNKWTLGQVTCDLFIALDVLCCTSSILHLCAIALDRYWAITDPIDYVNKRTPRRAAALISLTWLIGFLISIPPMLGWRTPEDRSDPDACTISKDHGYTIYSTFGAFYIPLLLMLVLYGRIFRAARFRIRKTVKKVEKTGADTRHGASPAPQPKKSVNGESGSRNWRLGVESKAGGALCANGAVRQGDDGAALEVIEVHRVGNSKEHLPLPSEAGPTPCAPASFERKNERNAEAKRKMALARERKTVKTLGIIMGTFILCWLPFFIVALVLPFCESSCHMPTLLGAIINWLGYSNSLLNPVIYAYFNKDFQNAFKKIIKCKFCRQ

[3] = (§1) Binding affinity was determined against 5-hydroxytryptamine 2A receptor; design: species or system Cavia porcellus
[4] = biological target: 5-hydroxytryptamine receptor 2A (Homo sapiens, UniProt P28223); assay: as §1; design: species or system Cavia porcellus
D(3) dopamine receptor = D(3) dopamine receptor (Homo sapiens, UniProt P35462); assay: Binding affinity was determined against Dopamine receptor D3 determined using cloned human receptors expressed in CHO cells radiolabeled with [125I]- iodosulpride; assay type: cell-based
Histamine H1 receptor = Histamine H1 receptor (Cavia porcellus, UniProt P31389); assay: Binding affinity was determined against H1 receptor
[5] = Binding affinity was determined against 5-hydroxytryptamine 1D receptor
D(2) dopamine receptor = D(2) dopamine receptor (Homo sapiens, UniProt P14416); assay: Binding affinity was determined by standard competitive displacement of [125I]iodosulpride using Dopamine receptor D2 cloned human receptors expressed in CHO cells
Chain of D(2) dopamine receptor (P14416 whole entry): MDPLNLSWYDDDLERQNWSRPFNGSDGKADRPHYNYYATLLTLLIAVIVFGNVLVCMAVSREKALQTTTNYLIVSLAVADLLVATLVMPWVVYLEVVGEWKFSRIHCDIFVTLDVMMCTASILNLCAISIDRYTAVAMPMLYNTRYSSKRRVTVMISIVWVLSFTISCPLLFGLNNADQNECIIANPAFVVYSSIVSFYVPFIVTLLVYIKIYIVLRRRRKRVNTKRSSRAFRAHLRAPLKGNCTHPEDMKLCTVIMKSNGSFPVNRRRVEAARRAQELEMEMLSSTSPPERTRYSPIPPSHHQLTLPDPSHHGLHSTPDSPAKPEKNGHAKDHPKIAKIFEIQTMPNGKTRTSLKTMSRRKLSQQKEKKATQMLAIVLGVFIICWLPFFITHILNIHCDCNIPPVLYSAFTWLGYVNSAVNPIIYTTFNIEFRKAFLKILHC

Chain of 5-hydroxytryptamine receptor 4 (O70528 whole entry): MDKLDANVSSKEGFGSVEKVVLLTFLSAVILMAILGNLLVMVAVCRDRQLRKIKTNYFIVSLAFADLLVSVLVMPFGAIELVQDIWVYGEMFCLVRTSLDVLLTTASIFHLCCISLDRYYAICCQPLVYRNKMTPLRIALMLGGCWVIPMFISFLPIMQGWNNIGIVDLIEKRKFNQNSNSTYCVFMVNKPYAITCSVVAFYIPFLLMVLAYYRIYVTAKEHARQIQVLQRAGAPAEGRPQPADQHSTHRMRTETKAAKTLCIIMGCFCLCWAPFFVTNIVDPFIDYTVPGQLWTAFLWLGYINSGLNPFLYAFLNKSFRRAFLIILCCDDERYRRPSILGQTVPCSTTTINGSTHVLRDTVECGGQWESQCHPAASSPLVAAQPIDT
Chain of Histamine H1 receptor (P31389 whole entry): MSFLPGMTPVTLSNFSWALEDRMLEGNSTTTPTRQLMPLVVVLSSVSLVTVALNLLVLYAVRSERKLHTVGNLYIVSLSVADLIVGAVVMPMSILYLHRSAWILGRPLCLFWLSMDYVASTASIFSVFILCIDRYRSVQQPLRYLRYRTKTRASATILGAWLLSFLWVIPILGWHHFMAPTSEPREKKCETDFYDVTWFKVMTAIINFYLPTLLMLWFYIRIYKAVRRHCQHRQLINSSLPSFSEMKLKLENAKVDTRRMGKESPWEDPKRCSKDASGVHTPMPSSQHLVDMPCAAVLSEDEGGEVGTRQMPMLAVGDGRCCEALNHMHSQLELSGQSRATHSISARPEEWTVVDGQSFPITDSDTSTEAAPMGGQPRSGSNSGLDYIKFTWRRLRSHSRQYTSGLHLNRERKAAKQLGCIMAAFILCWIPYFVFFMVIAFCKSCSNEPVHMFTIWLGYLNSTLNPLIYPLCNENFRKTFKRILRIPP
Chain of 5-hydroxytryptamine receptor 2A (P28223 whole entry): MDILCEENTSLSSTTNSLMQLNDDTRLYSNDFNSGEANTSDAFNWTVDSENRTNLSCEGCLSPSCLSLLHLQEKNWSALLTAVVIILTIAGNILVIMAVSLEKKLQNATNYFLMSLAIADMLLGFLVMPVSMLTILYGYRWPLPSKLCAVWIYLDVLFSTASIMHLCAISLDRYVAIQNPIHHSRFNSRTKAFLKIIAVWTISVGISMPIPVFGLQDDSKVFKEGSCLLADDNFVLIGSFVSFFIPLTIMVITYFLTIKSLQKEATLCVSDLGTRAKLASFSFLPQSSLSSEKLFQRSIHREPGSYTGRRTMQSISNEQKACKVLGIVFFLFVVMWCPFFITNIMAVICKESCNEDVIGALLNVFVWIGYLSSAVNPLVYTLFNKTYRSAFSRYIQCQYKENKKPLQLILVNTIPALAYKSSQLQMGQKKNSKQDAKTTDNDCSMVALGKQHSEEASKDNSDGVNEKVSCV
Chain of D(3) dopamine receptor (P35462 whole entry): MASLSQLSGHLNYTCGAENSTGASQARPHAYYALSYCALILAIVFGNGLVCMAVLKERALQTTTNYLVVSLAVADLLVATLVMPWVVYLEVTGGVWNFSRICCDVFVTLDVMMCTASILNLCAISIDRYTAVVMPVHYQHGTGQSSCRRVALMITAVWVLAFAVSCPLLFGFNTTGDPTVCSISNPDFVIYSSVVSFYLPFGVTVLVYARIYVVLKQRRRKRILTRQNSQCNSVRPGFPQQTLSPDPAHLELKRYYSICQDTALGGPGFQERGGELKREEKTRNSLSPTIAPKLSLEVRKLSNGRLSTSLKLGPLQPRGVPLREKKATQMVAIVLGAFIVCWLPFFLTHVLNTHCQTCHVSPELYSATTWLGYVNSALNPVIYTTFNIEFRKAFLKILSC

Work on `CCCCN1CCC(CNC(=O)c2c3n(c4ccccc24)CCO3)CC1` yielded an IC50 [1] of 15.8 nM.
Work on `CCCCN1CCC(CNC(=O)c2c[nH]c3ccccc23)CC1` yielded an IC50 [1] of 200 nM.
With `CCCCN1CCC(CNC(=O)c2c3n(c4ccccc24)CCCO3)CC1` [PIBOSEROD] the Ki [2] was > 10000 nM, the Log Ki [3] was > -6 and the Ki [4] was > 1000 nM. The Ki (D(3) dopamine receptor) was > 1000 nM, the Ki (Histamine H1 receptor) was > 1000 nM and the Ki [5] was > 10000 nM. The Ki (D(2) dopamine receptor) was > 1000 nM.
For `CCCCN1CCC(COC(=O)c2c(OC)[nH]c3ccccc23)CC1`, the IC50 [1] was 0.1 nM.
For `CCCCN1CCC(CNC(=O)c2c(OC)[nH]c3ccccc23)CC1`, the IC50 [1] was 79.4 nM.
For `CCCCN1CCC(CNC(=O)c2c3n(c4ccccc24)CCCCO3)CC1`, the IC50 [1] was 7.94 nM.
